The source made the active and inactive calls. The calls are words filed in the database; no cut-off is given here.
Assays:
[1] = tested on: A549; assay: Antiproliferative activity against human A549 cells after 96 hrs by MTT assay; assay type: functional, cell-based; settings: A549, 96 h
[2] = tested on: Mus musculus; assay: Toxicity in Kunming mouse implanted with mouse H22 cell assessed as survival at 40 mg/kg, ip administered on day 1 and day 5; assay type: organism-based; settings: in vivo
[3] = tested on: HCT-8; assay: Antiproliferative activity against human HCT8 cells after 96 hrs by MTT assay; assay type: functional, cell-based; settings: HCT-8, 96 h
[4] = tested on: Bel-7402; assay: Antiproliferative activity against human Bel7402 cells after 96 hrs by MTT assay; assay type: functional, cell-based; settings: Bel-7402, 96 h
[5] = tested on: H22; assay: Antitumor activity against mouse H22 cells implanted in Kunming mouse assessed as tumor growth inhibition at 40 mg/kg, ip administered on day 1 and day 5 relative to control relative to control; assay type: functional; settings: read-out: TGI
[6] = tested on: A2780; assay: Antiproliferative activity against human A2780 cells after 96 hrs by MTT assay; assay type: functional, cell-based; settings: A2780, 96 h
[7] = tested on: Mus musculus; assay: Toxicity in Kunming mouse implanted with mouse H22 cells assessed as body weight at 40 mg/kg, ip administered on day 1 and day 5 (reference value: 32.5 g); assay type: organism-based; settings: in vivo
[8] = tested on: BGC-823; assay: Antiproliferative activity against human BGC823 cells after 96 hrs by MTT assay; assay type: functional, cell-based; settings: BGC-823, 96 h
[9] = tested on: H22; assay: Antitumor activity against mouse H22 cells implanted in Kunming mouse assessed as tumor growth inhibition at 24 mg/kg, ip administered once in every 3 days totally for 3 times relative to control; assay type: functional; settings: 72 h, read-out: TGI
[10] = tested on: Mus musculus; assay: Toxicity in Kunming mouse implanted with mouse H22 cells assessed as body weight at 24 mg/kg, ip administered once in every three days totally for 3 times (reference value: 32.5 g); assay type: organism-based; settings: in vivo
[11] = tested on: H22; assay: Antitumor activity against mouse H22 cells implanted in Kunming mouse assessed as tumor growth inhibition at 100 mg/kg, ip administered twice relative to control; settings: read-out: TGI
[12] = tested on: A549; assay: Cell cycle arrest in human A549 cells assessed as accumulation at S phase at 75 nM after 24 hrs by propidium iodide staining based flow cytometry (reference value: 32.80%); assay type: functional
[13] = tested on: Bel-7402; assay: Antitumor activity against human Bel7402 cells xenografted in BALB/c nude mouse assessed as tumor growth inhibition at 5 mg/kg, ip administered once in a week for two weeks starting from 6 days post tumor transplantation measured 27 to 30 days post tumor transplantation relative to control; assay type: functional; settings: Bel-7402, ip, read-out: TGI
[14] = tested on: A549; assay: Cell cycle arrest in human A549 cells assessed as accumulation at G0/G1 phase at 8 nM after 24 hrs by propidium iodide staining based flow cytometry (reference value: 58.84%); assay type: functional
[15] = tested on: A549; assay: Cell cycle arrest in human A549 cells assessed as accumulation at G2/M phase at 75 nM after 24 hrs by propidium iodide staining based flow cytometry (reference value: 8.36%); assay type: functional
[16] = tested on: A549; assay: Cell cycle arrest in human A549 cells assessed as accumulation at G0/G1 phase at 25 nM after 24 hrs by propidium iodide staining based flow cytometry (reference value: 58.84%); assay type: functional
[17] = tested on: A549; assay: Cell cycle arrest in human A549 cells assessed as accumulation at G0/G1 phase at 75 nM after 24 hrs by propidium iodide staining based flow cytometry (reference value: 58.84%); assay type: functional
[18] = tested on: A549; assay: Cell cycle arrest in human A549 cells assessed as accumulation at G2/M phase at 8 nM after 24 hrs by propidium iodide staining based flow cytometry (reference value: 8.36%); assay type: functional
[19] = tested on: Mus musculus; assay: Antitumor activity in BALB/c nude mouse xenografted with human Bel7402 cells assessed as tumor volume at 5 mg/kg, ip administered once in a week for two weeks starting from 6 days post tumor transplantation measured every 3 days for 21 days (reference value: […]); settings: in vivo, 504 h
[20] = tested on: A549; assay: Cell cycle arrest in human A549 cells assessed as accumulation at S phase at 25 nM after 24 hrs by propidium iodide staining based flow cytometry (reference value: 32.80%); assay type: functional
[21] = tested on: A549; assay: Cell cycle arrest in human A549 cells assessed as accumulation at S phase at 8 nM after 24 hrs by propidium iodide staining based flow cytometry (reference value: 32.80%); assay type: functional
[22] = tested on: A549; assay: Cell cycle arrest in human A549 cells assessed as accumulation at G2/M phase at 25 nM after 24 hrs by propidium iodide staining based flow cytometry (reference value: 8.36%); assay type: functional
[23] = tested on: Mus musculus; assay: Toxicity in BALB/c nude mouse xenografted with human Bel7402 cells assessed as body weight at 5 mg/kg, ip administered once in a week for two weeks starting from 6 days post tumor transplantation measured every 3 days for 21 days (reference value: 14.5 g); assay type: organism-based; settings: in vivo, 504 h
[24] = tested on: Bel-7402; assay: Antitumor activity against human Bel7402 cells xenografted in BALB/c nude mouse assessed as tumor volume at 5 mg/kg, ip administered once in a week for two weeks starting from 6 days post tumor transplantation measured 27 to 30 days post tumor transplantation relative to control; assay type: functional
[25] = tested on: Escherichia coli; assay: Inhibition of Escherichia coli topoisomerase 1-mediated relaxation of supercoiled Pcmv-6 plasmid DNA at 1 to 50 uM after 30 mins by ethidium bromide staining based agarose gel electrophoretic analysis
[26] = tested on: H22; assay: Antitumor activity against mouse H22 cells implanted in Kunming mouse assessed as tumor growth inhibition at 60 mg/kg, ip administered twice relative to control; assay type: functional; settings: read-out: TGI
[27] = tested on: H22; assay: Antitumor activity against mouse H22 cells implanted in Kunming mouse assessed as tumor growth inhibition at 100 mg/kg, ip administered once relative to control; assay type: functional; settings: read-out: TGI
[28] = tested on: Mus musculus; assay: Toxicity in Kunming mouse implanted with mouse H22 cells assessed as body weight at 60 mg/kg, ip administered twice (reference value: 31.1 g); assay type: organism-based; settings: in vivo
[29] = tested on: Mus musculus; assay: Toxicity in Kunming mouse implanted with mouse H22 cells assessed as body weight at 100 mg/kg, ip administered once (reference value: 31.1 g); assay type: organism-based; settings: in vivo
[30] = tested on: BGC-823; assay: Antitumor activity against human BGC823 cells xenografted in BALB/c nude mouse assessed as tumor growth inhibition at 50 mg/kg, ip administered once in a week for two weeks starting from 6 days post tumor transplantation measured 27 to 30 days post tumor transplantation relative to control; assay type: functional; settings: BGC-823, ip, read-out: TGI
[31] = tested on: Mus musculus; assay: Toxicity in BALB/c nude mouse xenografted with human BGC823 cells assessed as mouse survival at 50 mg/kg, ip administered once in a week for two weeks starting from 6 days post tumor transplantation; assay type: organism-based; settings: in vivo, 144 h
[32] = tested on: Mus musculus; assay: Toxicity in BALB/c nude mouse xenografted with human BGC823 cells assessed as body weight at 50 mg/kg, ip administered once in a week for two weeks starting from 6 days post tumor transplantation and measured every 3 days during compound dosing for 15 days (reference value: 23.6 g); assay type: organism-based; settings: in vivo, 360 h

Compound | IC50 [1] [nM] | IC50 [3] [nM] | IC50 [4] [nM] | IC50 [6] [nM] | IC50 [8] [nM] | other results
CC[C@@]1(OC(=O)Cn2cc(Br)c(=O)[nH]c2=O)C(=O)OCc2c1cc1n(c2=O)Cc2cc3ccccc3nc2-1 | 48 | 6 | 12 | 160 | 16 | Activity [2]: Non-Toxic; inhibition in vivo at 40 mg/kg [5]: 6.39%; Activity [7]: 32.1 g
CC(=O)O[C@H]1C(=O)[C@@]2(C)[C@H]([C@H](OC(=O)c3ccccc3)[C@]3(O)C[C@H](OC(=O)[C@H](O)[C@@H](NC(=O)c4ccccc4)c4ccccc4)C(C)=C1C3(C)C)[C@]1(OC(C)=O)CO[C@@H]1C[C@@H]2O [PACLITAXEL] |  |  |  |  |  | inhibition in vivo at 24 mg/kg [9]: 73.8%; Activity [10]: 18.9 g
CC[C@@]1(OC(=O)Cn2cc(Cl)c(=O)[nH]c2=O)C(=O)OCc2c1cc1n(c2=O)Cc2cc3ccccc3nc2-1 | 54 | 13 | 17 | 110 | 16 | 
O=P1(N(CCCl)CCCl)NCCCO1 (stereo not drawn) [CYCLOPHOSPHAMIDE ANHYDROUS] |  |  |  |  |  | inhibition in vivo at 100 mg/kg [11]: 93.7%
CC[C@@]1(OC(=O)Cn2cc(F)c(=O)[nH]c2=O)C(=O)OCc2c1cc1n(c2=O)Cc2cc3c([N+](=O)[O-])cccc3nc2-1 | 81 | 13 | 16 | 115 | 17 | 
CC[C@@]1(O)C(=O)OCc2c1cc1n(c2=O)Cc2cc3c(CN(C)C)c(O)ccc3nc2-1 [TOPOTECAN] | 7 | 22 | 100 | 78 | 78 | Activity [12]: 23.36%; inhibition in vivo at 5 mg/kg [13]: 45.5%; Activity [14]: 53.22%; Activity [15]: 32.83%; Activity [16]: 55.73%; Activity [17]: 43.81%; Activity [18]: 11.71%; tumor volume [19]: 302 mm³; Activity [20]: 31.44%; Activity [21]: 35.07%; Activity [22]: 12.83%; Activity [23]: Non-Toxic; T/C [24]: 58.8%; inhibition [25]: Active
CC[C@@]1(OC(=O)Cn2cc(I)c(=O)[nH]c2=O)C(=O)OCc2c1cc1n(c2=O)Cc2cc3ccccc3nc2-1 | 6400 | 957 | 3280 | 750 | 7890 | 
CCc1c2c(nc3ccccc13)-c1cc3c(c(=O)n1C2)COC(=O)[C@@]3(CC)OC(=O)Cn1cc(Br)c(=O)[nH]c1=O | 88 | < 2 | 12 | 182 | 31 | 
CC[C@@]1(O)C(=O)OCc2c1cc1n(c2=O)Cc2cc3ccccc3nc2-1 [CAMPTOTHECIN] | 6 | 24 | 14 | 29 | 57 | 
CCc1c2c(nc3ccccc13)-c1cc3c(c(=O)n1C2)COC(=O)[C@@]3(CC)OC(=O)Cn1ccc(=O)[nH]c1=O | 65 | 2 | 14 | 86 | 17 | 
CC[C@@]1(OC(=O)Cn2ccc(=O)[nH]c2=O)C(=O)OCc2c1cc1n(c2=O)Cc2cc3ccccc3nc2-1 | 46 | 14 | 18 | 160 | 17 | 
CC[C@@]1(OC(=O)Cn2cc(Br)c(=O)[nH]c2=O)C(=O)OCc2c1cc1n(c2=O)Cc2cc3c([N+](=O)[O-])cccc3nc2-1 | 90 | 13 | 13 | 183 | 15 | 
CC[C@@]1(OC(=O)Cn2ccc(=O)[nH]c2=O)C(=O)OCc2c1cc1n(c2=O)Cc2cc3c([N+](=O)[O-])cccc3nc2-1 | 51 | 14 | 18 | 73 | 17 | Activity [2]: Non-Toxic; inhibition in vivo at 40 mg/kg [5]: 11%; Activity [7]: 32 g
CC[C@@]1(OC(=O)Cn2cc(Cl)c(=O)[nH]c2=O)C(=O)OCc2c1cc1n(c2=O)Cc2cc3c([N+](=O)[O-])cccc3nc2-1 | 75 | 13 | 16 | 221 | 17 | 
CCc1c2c(nc3ccccc13)-c1cc3c(c(=O)n1C2)COC(=O)[C@@]3(CC)OC(=O)Cn1cc(I)c(=O)[nH]c1=O | 710 | 586 | 4510 | 669 | 2570 | 
CCc1c2c(nc3ccccc13)-c1cc3c(c(=O)n1C2)COC(=O)[C@@]3(CC)OC(=O)Cn1cc(Cl)c(=O)[nH]c1=O | 38 | 2 | 12 | 670 | 17 | inhibition in vivo at 60 mg/kg [26]: 76.6%; Activity [2]: Non-Toxic; inhibition in vivo at 40 mg/kg [5]: 46.2%; inhibition in vivo at 100 mg/kg [27]: 58.7%; Activity [28]: 26.2 g; Activity [7]: 27 g; Activity [29]: 25.2 g
CCc1c2c(nc3ccc(OC(=O)N4CCC(N5CCCCC5)CC4)cc13)-c1cc3c(c(=O)n1C2)COC(=O)[C@]3(O)CC [IRINOTECAN] |  |  |  |  |  | inhibition in vivo at 50 mg/kg [30]: 94.1%; Activity [31]: Non-Toxic; Activity [32]: 20.5 g
CC[C@@]1(OC(=O)Cn2cc(F)c(=O)[nH]c2=O)C(=O)OCc2c1cc1n(c2=O)Cc2cc3ccccc3nc2-1 | 126 | 109 | 86 | 68 | 64 | 
CC[C@@]1(OC(=O)Cn2cc(I)c(=O)[nH]c2=O)C(=O)OCc2c1cc1n(c2=O)Cc2cc3c([N+](=O)[O-])cccc3nc2-1 | 117 | 14 | 13 | 200 | 16 | 

— ChEMBL document CHEMBL4000174, “Synthesis and antitumor activity of novel substituted uracil-1'(N)-acetic acid ester derivatives of 20(S)-camptothecins” (Eur J Med Chem, 2017)
